From patent US20060276423A1, “Survivin-directed RNA interference-compositions and methods” (priority 2005, published 2006)
Starred links: 1 amine or outer side, 2 acyl side, 3 side chain; linkers in the order of their positions; H or OH if unused. Positions of bridges follow the written chain, without caps; N, C: chain ends. Non-standard residues stand in square brackets, D forms with d. Residues, ends and D or L forms follow the SMILES beside them. Chains are numbered I, II in the order given. Actinocin(9to1) = Cc1c2oc3c(C)ccc(C(=O)[*:1])c3nc-2c(C(=O)[*:2])c(N)c1=O; NMeV = CN[C@H](C(=O)O)C(C)C; Sar = CNCC(=O)O

Tested on: Human Umbilical Vein Endothelial (HUVE) cells
Test: In vitro tube formation assay on BME
Format: cell-based
Conditions: most marked between 4 and 16 hours after plating
Method: FIG. 7: Interference with Survivin-ΔEx3 inhibits angiogenesis in vitro. Human Umbilical Vein Endothelial (HUVE) cells were transfected with shRNAs of the instant invention or incubated with antibodies against Survivin-ΔEx3 and the results compared to HUVE cells treated with known inducers/inhibitors of in vitro angiogenesis. Treated/transfected cells were plated on growth factor reduced basement membrane extract (BME) to support in vitro tube formation. […] Quantitative data shown in (E) are mean±s.e. of 5 replicates per sample.
Survivin ΔEx3 activity was disrupted in an in vitro tube formation assay by either downregulating Survivin ΔEx3 mRNA with an shRNA or inhibiting Survivin ΔEx3 protein with an anti-Survivin ΔEx3 antibody. To downregulate transcription, an shRNA targeting the exon2-exon-4 boundary, specific for Survivin ΔEx3 was used. A scrambled shRNA and a cocktail of 3 shRNAs targeting all Survivin isoforms were used as controls (FIG. 7). HUVECs were transfected with shRNA plasmids in combination with a plasmid encoding eGFP. The cells were sterile sorted by FACS to isolate the population of cells that was successfully transfected, based on eGFP fluorescence. […] Tube formation was quantified by counting the number of branches and tube length from 5 representative fields per replicate, in a double-blinded fashion.

`Cc1c2oc3c(C)ccc(C(=O)N[C@@H]4C(=O)N[C@H](C(C)C)C(=O)N5CCC[C@H]5C(=O)N(C)CC(=O)N(C)[C@@H](C(C)C)C(=O)O[C@@H]4C)c3nc-2c(C(=O)N[C@@H]2C(=O)N[C@H](C(C)C)C(=O)N3CCC[C@H]3C(=O)N(C)CC(=O)N(C)[C@@H](C(C)C)C(=O)O[C@@H]2C)c(N)c1=O` [actinomycin-D] (I: T[dV]P[Sar][NMeV] / II: T[dV]P[Sar][NMeV]; ester I:1-I:C, II:1-II:C; linker I:N-II:N via Actinocin(9to1)) was tested, and the “tube formation on BME” value was “inhibition of tube formation”.
